What was measured:
[1] = system: EGF on surface of H292 cell membrane; test: Surface antigen analysis (FACS) of EGF on NCI-H292 cell membrane; assay type: cell-based, human
Protocol: (§1) NCI-H292 cells (purchased from ATCC) were cultured on a 10 cm dish in 10% FCS-containing RPMI-1640 until to reach a confluent state, subjected to the replacement of the culture medium by RPMI-1640 containing 0.1% of BSA, and further cultured for 24 hours. The cultured cells were washed with PBS, treated and floated in PBS containing 5 mM of EDTA at 37° C. for five minutes, and then suspended in 0.1%BSA-containing RPMI-1640 in a density of 1.0×10^7 cells/mL.
(§2) The above-described cell suspension and 0.1% BSA-containing RPMI-1640 containing HAST in a double concentration (600 mU/mL) were mixed with each other in equivalent amounts, respectively, and reacted with each other at 37° C. for 30 minutes (final cell concentration: 5.0×10^6 cells/mL, final HAST concentration: 300 mU/mL). The reaction solution was mixed with ice-cooled 1% FCS-containing PBS in a volume of 5 times that of the reaction solution to stop the reaction, and the treated solution was then supplied for a surface antigen analysis.
(§3) The cells subjected to the prescribed treatments were suspended in 1% FCS-containing PBS in a density of 1.0×10^7 cells/mL. 100 μL of the prepared cell suspension was mixed with a primary antigen (EGF back ground dyeing: 1 μg of normal mouse IgG1 (produced by R & D Corp.), EGF dyeing: 1 μg of an anti-EGF mouse monoclonal antibody (produced by R & D Corp.), HB-EGF back ground dyeing: free from the primary antigen, HB-EGF dyeing: 2 μg of an anti-HB-EGF goat polyclonal antibody (produced by R & D Corp.)) and reacted on ice for 30 minutes. The reaction product was once washed with 5 mL of 1% FCS-containing PBS, mixed with 2 μg of a secondary antigen (EGF back ground dyeing and EGF dyeing: FITC conjugated F(ab′)2 fragment to mouse IgG (produced by Dako Corp.), HB-EGF back ground dyeing and HB-EGF dyeing: Swine Anti-Goat Ig's Fluorescein Conjugate (produced by KPL Corp.)), and then reacted on ice for 30 minutes. The reaction solution was once washed with 5 mL of 1% FCS-containing PBS, and then mixed with Cell Fix (produced by Becton Dickinson Corp.) to immobilize the cells. The expression of the surface antigen was assayed with FACS Calibur (produced by Becton Dickinson Corp.) and analyzed with Cell Quest (produced by Becton Dickinson Corp.). Average fluorescence intensities were shown in the next table as the indicators of expression intensities.
(§4) HAST (600 mU/mL) was reacted with leupeptin (10 μM) or BB1101 (5 μM) in 0.1% BSA-containing RPMI-1640 on ice for 30 minutes, and the reaction solution was mixed with the equivalent amount of a cell suspension preliminarily treated with leupeptin (10 μM) or BB1101 (5 μM) at 37° C. for 30 minutes, and further treated at 37° C. for 30 minutes (final HAST concentration: 300 mU/mL, final leupeptin concentration: 10 μM, final BB1101 concentration: 5 μM, final cell concentration: 5.0×10^6 cells/mL). The reaction solution was mixed with ice-cooled 1% FCS-containing PBS in an amount of five times that of the reaction solution to stop the reaction, and then supplied for the surface antigen analysis.
(§5) The cells subjected to the prescribed treatments were suspended in 1% FCS-containing PBS in a density of 1.0×10^7 cells/mL. […]

[2] = system: HB-EGF on surface of H292 cell membrane; test: Surface antigen analysis (FACS) of HB-EGF on NCI-H292 cell membrane; assay type: cell-based, human
Protocol: as §1, §2, §3, §4, §5

BEAS-2B = test: Calcium influx in airway epithelial cell strain BEAS-2B; assay type: cell-based; conditions: AST 2 units/mL; trypsin 10 to 100 units/mL; SFLLRNamide 100 μM
Protocol: The Ca^2+ influx due to the AST was examined with respect to an airway epithelial cell strain BEAS-2B. The confluent cells adhered to six 10 cm dishes were used. The cells were peeled with a 10 mM EDTA/HEPES-Tyrode buffer solution for 10 minutes, recovered by a centrifugal treatment at 1,500 rpm at room temperature for 5 minutes, and then resuspended in 10 mL of HEPES-Tyrode buffer solution-Ca^2+ (−) pH 7.4. The recovered cells (about 1.1×10^7 cells) were suspended in 11 mL of HEPES-Tyrode buffer solution (1 μg/mL, containing Fura2-AM) to load the Fura2-AM at 37° C. for 30 minutes. The cells were recovered by a centrifugal treatment at 1,500 rpm at room temperature for 5 minutes, twice washed with HEPES-Tyrode buffer solution-Ca^2+ (−) pH 7.4, and then resuspended in 11 mL of HEPES-Tyrode buffer solution-Ca^2+ (−) pH 7.4. The cell suspension was mixed with […] of 1M CaCl2 to give a final concentration of 1 mM CaCl2, and then incubated in a shaded state at room temperature for 5 minutes. The prepared Fura2-AM-loaded infected cells were dispensed into a 96 well plate in a volume of 100 μL/well, further subjected to the dispensation of HEPES-Tyrode buffer solution-Ca^2+ (+) pH 7.4 in a volume of 80 μL/well, and then assayed with Fluorescence Drug Screening System (Hamamatsu Photonics Co.). […]

HAST: human airway-specific trypsin-like enzyme; propeptide moiety bound to trypsin-like protein moiety via a disulfide bond
cleavage of proEGF on the surfaces of the cell membranes ([1]; HAST 300 mU/mL): cleaved | EGF expression intensity on the surfaces of the cell membranes (average fluorescence intensity) ([1]; HAST 300 mU/mL, 37° C., 30 minutes, Back ground 4.62, PBS 7.26): 4.88 | EGF expression intensity on the surfaces of the cell membranes (average fluorescence intensity) ([1]; inhibitor experiment, HAST 300 mU/mL alone, Back ground 8.44, PBS 10.79): 8.33 | cleavage of proHB-EGF on the surfaces of the cell membranes ([2]; HAST 300 mU/mL): cleaved | HB-EGF expression intensity on the surfaces of the cell membranes (average fluorescence intensity) ([2]; HAST 300 mU/mL, 37° C., 30 minutes, Back ground 4.5, PBS 8.72): 6.94 | HB-EGF expression intensity on the surfaces of the cell membranes (average fluorescence intensity) ([2]; inhibitor experiment, HAST 300 mU/mL alone, Back ground 5.58, PBS 8.61): 6.26 | Ca2+ influx (BEAS-2B): observed

— patent US20040038369A1, “Airway-specific trypsin-like enzymes and method of using the same” (priority 2000, published 2004)
